In patent US10160867B2, “Benzoxaborole-containing coating resistant to cellulose-supportable fungus” (THE PENN STATE RESEARCH FOUNDATION, priority 2015, dated 2018):
Values after ≈ are worked out from the molar mass of the structure shown.

Columns and labels:
Alternaria alternata = experiment: Painted discs with or without UV irradiation before inoculation (defacement); type: cell-based; parameters: key: rating 10 = 0% defacement to 0 = 91-100% defacement; conditions: +100 μg/mL in Olympic Home latex paint
Experimental: In a separate study, painted filter paper discs were irradiated with UV light from a 30 watt bulb for 2 hours and then inoculated with Alternaria alternata spores (“+UV” in the table below), or were inoculated without prior UV irradiation (“no UV” in the Table 4). The painted filter papers were incubated as discussed elsewhere herein, evaluated at 13 and 21 days post-inoculation for defacement by fungal growth and compared to similar painted filter paper discs that were not irradiated prior to inoculation.
Samples were evaluated at regular intervals. The intensity of the fungal growth was rated by estimating the percentage of surface defacement using the following ratings: 10: 0% defacement; 9=1-10% defacement; 8=11-20% defacement; 7=21-30% defacement; 6=31-40% defacement; 5=41-50% defacement; 4=51-60% defacement; 3=61-70% defacement; 2=71-80% defacement; 1=81-90% defacement; and 0=91-100% defacement. A grid that divides the circular area into 20 equal sections as shown in FIG. 1 was used to estimate the extent (percent defacement) of fungal growth.

[1] = +UV (30 watt bulb, 2 hours, before inoculation), 13 days
[2] = +UV (30 watt bulb, 2 hours, before inoculation), 21 days

Row | SMILES | Average Defacement ± standard deviation for 3 replicates (Alternaria alternata; [1]) | Average Defacement ± standard deviation for 3 replicates (Alternaria alternata; [2]) | Average Defacement ± standard deviation for 3 replicates (Alternaria alternata; no UV, 13 days) | Average Defacement ± standard deviation for 3 replicates (Alternaria alternata; no UV, 21 days) | solubility (Solubility in water) [µg/mL]
1 | OB1OCc2cc(F)ccc21 [Compound B9, 5-Fluoro-1,3-dihydro-2,1-benzoxaborol-1-ol] | 10.0 ± 0.0 | 8.3 ± 2.1 | 10.0 ± 0.0 | 9.0 ± 0.0 | 800 (≈ 5.27 mM)
2 | CCCCNC(=O)OCC#CI [IPBC, 3-Iodo-2-propynylbutylcarbamate] | 9.7 ± 0.6 | 6.0 ± 4.4 | 8.3 ± 2.1 | 4.0 ± 4.0 | –
